Experimental data taken from patent US20250009737A1, “COMPOUNDS AND METHODS FOR THE TARGETED DEGRADATION OF ANDROGEN RECEPTOR” (Arvinas Operations, Inc., priority 2023, published 2025).

What was measured:
CYP1A2 mRNA = CYP1A2 mRNA induction in cryopreserved human hepatocytes; type: in vitro ADME; conditions: positive control inducer; human hepatocytes
Description: (§1) The induction potential of Compound A on CYP enzymes was assessed in cryopreserved human hepatocytes from three donors. Following treatment for with Compound A at concentrations of 0.03-30 μM for 48 hours, mRNA levels for CYP1A2, 2B6, 2C8, 2C9, 2C19, and 3A4 were determined by semiquantitative real-time polymerase chain reaction (PCR). Test article concentrations during 24-hour incubation were determined. The potential of Compound A to cause direct and time-dependent inhibition (TDI) of the activities of CYP1A2, 2B6, 2C8, 2C9, 2C19, 2D6, and 3A4 was evaluated in pooled human liver microsomes (HLM) at 0.2-15 μM. Probe substrate concentrations around Km were used for direction inhibition and initial TDI assays. For TDI assay, Compound A was pre-incubated with pooled HLM with and without NADPH for 30 minutes prior to incubation with a single concentration of probe substrate.

CYP2B6 mRNA = CYP2B6 mRNA induction in cryopreserved human hepatocytes; type: in vitro ADME; conditions: positive control inducer; human hepatocytes
Description: as §1

Row | Structure (SMILES) | CYP1A2 mRNA Fold induction, PC (CYP1A2 mRNA) | CYP2B6 mRNA Fold induction, PC (CYP2B6 mRNA)
1 | COc1ccc2[nH]c([S+]([O-])Cc3ncc(C)c(OC)c3C)nc2c1 (centres unmarked) [Omeprazole, reference compound] | 77-88 Fold | 
2 | CCC1(c2ccccc2)C(=O)NC(=O)NC1=O [Phenobarbital, reference compound] |  | 14-25 Fold
